Values after ≈ are worked out from the molar mass of the structure shown.
Key:
[1] = tested on: S.aureus ATCC 13709 Smith; assay: MIC by microbroth dilution method; format: cell-based
S.aureus ATCC 29213 = assay: MIC by microbroth dilution method; format: cell-based
MRSA ATCC 43300 = assay: MIC by microbroth dilution method; format: cell-based, S. aureus
MRSA 562 = assay: MIC by microbroth dilution method; format: cell-based, S. aureus
S.aureus2 (PVL + ve) = format: cell-based, S. aureus
[2] = tested on: S.aureus ATCC Newman 25904; assay: MIC by microbroth dilution method; format: cell-based
MRSA ATCC BAA 39 = assay: MIC by microbroth dilution method; format: cell-based, S. aureus
S.aureus DB00026 = assay: MIC by microbroth dilution method; format: cell-based
MRSA 252 BAA 1720 = assay: MIC by microbroth dilution method; format: cell-based, S. aureus
S.epidermidis ATCC 14990 = assay: MIC by microbroth dilution method; format: cell-based
MRSE ATCC 35984 = assay: MIC by microbroth dilution method; format: cell-based, S. epidermidis
E.faecalis ATCC 29212 = assay: MIC by microbroth dilution method; format: cell-based
[3] = tested on: E.faecalis ATCC 51299(VRE&HLAR); assay: MIC by microbroth dilution method; format: cell-based
E.faecalis ATCC 19433 = assay: MIC by microbroth dilution method; format: cell-based
E.faecium ATCC 19434 = assay: MIC by microbroth dilution method; format: cell-based
E.faecium ATCC 49224 = assay: MIC by microbroth dilution method; format: cell-based
E.faecium ATCC 35667 = assay: MIC by microbroth dilution method; format: cell-based
E.coli 7632 = assay: MIC by microbroth dilution method; format: cell-based
[4] = tested on: S.aureus ATCC 49775 PVL + ve; format: cell-based
[5] = tested on: S.aureus ATCC 700699 Mu50; assay: MIC by microbroth dilution method; format: cell-based
MRSA 0-2657 = assay: MIC by microbroth dilution method; format: cell-based, S. aureus
MRSA DB 00026 = assay: MIC by microbroth dilution method; format: cell-based, S. aureus
[6] = tested on: S.aureus 13709 LNZ mutant; format: cell-based
S.epidermidis ATCC 12228 = assay: MIC by microbroth dilution method; format: cell-based
MRSE ATCC 35983 = assay: MIC by microbroth dilution method; format: cell-based, S. epidermidis
S.epidermis St 358 = assay: MIC by microbroth dilution method; format: cell-based, S. epidermidis
E.faecalis SP 346 VRE = assay: MIC by microbroth dilution method; format: cell-based
E.faecium 6A VRE = assay: MIC by microbroth dilution method; format: cell-based
E.faecium 134 VRE = assay: MIC by microbroth dilution method; format: cell-based
E.faecium 06076 VRE = assay: MIC by microbroth dilution method; format: cell-based
E.faecium ATCC 3567 = assay: MIC by microbroth dilution method; format: cell-based
[7] = tested on: Mycobacterium tuberculosis H37Rv; assay: Anti-TB activity, colorimetric resazurin microtiter assay; format: cell-based; details: for MIC: Mycobacterium tuberculosis, H37RV, read-out: MIC, Minimum Inhibitory Concentration (90%)

| SMILES | MIC [1] | MIC (S.aureus ATCC 29213) | MIC (MRSA ATCC 43300) | MIC (MRSA 562) | MIC (S.aureus2 (PVL + ve)) | MIC [2] | MIC (MRSA ATCC BAA 39) | MIC (S.aureus DB00026) | MIC (MRSA 252 BAA 1720) | MIC (S.epidermidis ATCC 14990) | MIC (MRSE ATCC 35984) | MIC (E.faecalis ATCC 29212) | MIC [3] | MIC (E.faecalis ATCC 19433) | MIC (E.faecium ATCC 19434) | MIC (E.faecium ATCC 49224) | MIC (E.faecium ATCC 35667) | MIC (E.coli 7632) | MIC [4] | MIC [5] | other results |
| --- | --- | --- | --- | --- | --- | --- | --- | --- | --- | --- | --- | --- | --- | --- | --- | --- | --- | --- | --- | --- | --- |
| C[Si]1(C)CCN(c2ccc(N3C[C@H](CN)OC3=O)cc2F)CC1 [NDS-10057, (S)-5-(aminomethyl)-3-(4-(4,4-dimethyl-1,4-azasilinan-1-yl)-3-fluorophenyl)oxazolidin-2-one] | > 32 µg/mL | > 32 µg/mL | > 32 µg/mL | > 32 µg/mL | > 32 µg/mL | > 32 µg/mL | > 32 µg/mL | > 32 µg/mL | > 32 µg/mL | > 32 µg/mL | 32 µg/mL (≈ 94.8 µM) | > 32 µg/mL | 16 µg/mL (≈ 47.4 µM) | 32 µg/mL (≈ 94.8 µM) | 32 µg/mL (≈ 94.8 µM) | 32 µg/mL (≈ 94.8 µM) | 32 µg/mL (≈ 94.8 µM) | 32 µg/mL (≈ 94.8 µM) | > 32 µg/mL | > 32 µg/mL | MIC (MRSA 0-2657): > 32 µg/mL; MIC (MRSA DB 00026): > 32 µg/mL; MIC [6]: > 32 µg/mL; MIC (S.epidermidis ATCC 12228): > 32 µg/mL; MIC (MRSE ATCC 35983): > 32 µg/mL; MIC (S.epidermis St 358): > 32 µg/mL; MIC (E.faecalis SP 346 VRE): > 32 µg/mL; MIC (E.faecium 6A VRE): > 32 µg/mL; MIC (E.faecium 134 VRE): 32 µg/mL (≈ 94.8 µM); MIC (E.faecium 06076 VRE): > 32 µg/mL; MIC (E.faecium ATCC 3567): > 32 µg/mL; MIC [7]: 25 µg/mL (≈ 74.1 µM) |
| C[Si]1(c2ccccc2)CCN(c2c(F)cc(N3C[C@H](CN)OC3=O)cc2F)CC1 [NDS-10070, (S)-5-(aminomethyl)-3-(3,5-difluoro-4-(4-methyl-4-phenyl-1,4-azasilinan-1-yl)phenyl)oxazolidin-2-one] | > 32 µg/mL | > 32 µg/mL | > 32 µg/mL | 32 µg/mL (≈ 76.6 µM) | > 32 µg/mL | > 32 µg/mL | > 32 µg/mL | > 32 µg/mL | > 32 µg/mL | > 32 µg/mL | 32 µg/mL (≈ 76.6 µM) | 32 µg/mL (≈ 76.6 µM) | 32 µg/mL (≈ 76.6 µM) | 32 µg/mL (≈ 76.6 µM) | 32 µg/mL (≈ 76.6 µM) | 32 µg/mL (≈ 76.6 µM) | 32 µg/mL (≈ 76.6 µM) | 32 µg/mL (≈ 76.6 µM) | > 32 µg/mL | > 32 µg/mL | MIC (MRSA 0-2657): > 32 µg/mL; MIC (MRSA DB 00026): > 32 µg/mL; MIC [6]: > 32 µg/mL; MIC (S.epidermidis ATCC 12228): > 32 µg/mL; MIC (MRSE ATCC 35983): > 32 µg/mL; MIC (S.epidermis St 358): > 32 µg/mL; MIC (E.faecalis SP 346 VRE): > 32 µg/mL; MIC (E.faecium 6A VRE): > 32 µg/mL; MIC (E.faecium 134 VRE): > 32 µg/mL; MIC (E.faecium 06076 VRE): > 32 µg/mL; MIC (E.faecium ATCC 3567): > 32 µg/mL; MIC [7]: 50 µg/mL (≈ 120 µM) |
| C[Si]1(C)CCN(c2c(F)cc(N3C[C@H](Cn4ccnn4)OC3=O)cc2F)CC1 [NDS-10058, (R)-5-((1H-1,2,3-triazol-1-yl)methyl)-3-(4-(4,4-dimethyl-1,4-azasilinan-1-yl)-3,5-difluorophenyl)oxazolidin-2-one] | > 32 µg/mL | > 32 µg/mL | > 32 µg/mL | > 32 µg/mL | 32 µg/mL (≈ 78.5 µM) | 32 µg/mL (≈ 78.5 µM) | > 32 µg/mL | > 32 µg/mL | > 32 µg/mL | > 32 µg/mL | 32 µg/mL (≈ 78.5 µM) | 32 µg/mL (≈ 78.5 µM) | 32 µg/mL (≈ 78.5 µM) | 32 µg/mL (≈ 78.5 µM) | 32 µg/mL (≈ 78.5 µM) | > 32 µg/mL | > 32 µg/mL | 16 µg/mL (≈ 39.3 µM) | 32 µg/mL (≈ 78.5 µM) | > 32 µg/mL | MIC (MRSA 0-2657): > 32 µg/mL; MIC (MRSA DB 00026): > 32 µg/mL; MIC [6]: 32 µg/mL (≈ 78.5 µM); MIC (S.epidermidis ATCC 12228): > 32 µg/mL; MIC (MRSE ATCC 35983): 16 µg/mL (≈ 39.3 µM); MIC (S.epidermis St 358): 32 µg/mL (≈ 78.5 µM); MIC (E.faecalis SP 346 VRE): 32 µg/mL (≈ 78.5 µM); MIC (E.faecium 6A VRE): 16 µg/mL (≈ 39.3 µM); MIC (E.faecium 134 VRE): 4 µg/mL (≈ 9.82 µM); MIC (E.faecium 06076 VRE): 32 µg/mL (≈ 78.5 µM); MIC (E.faecium ATCC 3567): > 32 µg/mL; anti-tubercular activity (in words) ([7]; Mycobacterium tuberculosis H37Rv): good anti-tubercular activity; MIC [7]: 12.5 µg/mL (≈ 30.7 µM) |

— patent US9233989B2, “Sila analogs of oxazolidinone derivatives and synthesis thereof” (Council of Scientific & Industrial Research, priority 2011, dated 2016)
